This note sets out measurements from patent USRE43343E1, “Inhibitors of histone deacetylase” (Methylgene Inc., priority 1999, dated 2012).

Bounds are passed on as bounds.

T1 sequence (Q13547 whole entry): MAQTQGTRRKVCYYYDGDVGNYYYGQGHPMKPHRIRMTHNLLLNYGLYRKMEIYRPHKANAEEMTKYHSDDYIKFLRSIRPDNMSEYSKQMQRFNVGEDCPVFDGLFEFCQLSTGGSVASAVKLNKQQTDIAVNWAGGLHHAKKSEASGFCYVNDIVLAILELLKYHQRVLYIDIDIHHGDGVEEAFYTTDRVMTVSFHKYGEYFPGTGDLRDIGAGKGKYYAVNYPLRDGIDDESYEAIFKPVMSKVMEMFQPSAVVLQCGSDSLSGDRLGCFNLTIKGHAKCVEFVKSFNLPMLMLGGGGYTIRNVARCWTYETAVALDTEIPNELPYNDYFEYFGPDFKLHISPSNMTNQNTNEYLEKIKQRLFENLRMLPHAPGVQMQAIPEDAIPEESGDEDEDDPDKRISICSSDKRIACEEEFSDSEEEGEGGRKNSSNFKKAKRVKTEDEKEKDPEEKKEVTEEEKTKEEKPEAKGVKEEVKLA

The test system of one test is histone deacetylase in nuclear extracts from H446 cells (pooled HDACs). As to the kind of experiment: Histone deacetylase inhibition, H446 nuclear extracts (pooled HDACs). Type of test: biochemical, human. Particulars: @ 20 μM. The procedure:
(§1) The reaction was stopped by adding acetic acid (0.04 M, final concentration) and HCl (250 mM, final concentration). The mixture was extracted with ethyl acetate and the released [^3H]-acetic acid was quantified by scintillation counting. For inhibition studies, the enzyme was preincubated with compounds at 4° C. for 30 minutes prior to initiation of the enzymatic assay. IC50 values for HDAC enzyme inhibitors were determined by performing dose response curves with individual compounds and determining the concentration of inhibitor producing fifty percent of the maximal inhibition.
In the case of `O=C(CCCc1ccc(C(=O)NO)cc1)c1ccccc1` [Compound 177], the “pooled HDACs percent inhibition at the specified concentration” value (from here on “pooled HDACs percent inhibition”) was determined as 10% @ 20 μM.
`O=C(CCC1CCC(CC(=O)c2ccccc2)O1)NO` (stereo not drawn) [Compound 176]: the “pooled HDACs percent inhibition” value was determined as 20% @ 20 μM.
For `CN(C)c1ccc(CCc2ccccc2C(=O)NO)cc1` [Compound 173], the “pooled HDACs percent inhibition” value turned out to be 35% @ 20 μM.
On to `Nc1ccccc1NC(=O)/C=C/C#Cc1cccc(NS(=O)(=O)c2ccccc2)c1` [Compound 168], for which the “pooled HDACs percent inhibition” value came to 0% @ 20 μM.
On to `O=C(NO)c1ccc(CCCC(O)c2ccc3ccccc3c2)cc1` (stereo not drawn) [Compound 149], for which the “pooled HDACs percent inhibition” value was found to be 8% @ 20 μM.
For `Nc1ccccc1NC(=O)c1ccc(CC(=O)c2ccccc2)o1` [Compound 178], the “pooled HDACs percent inhibition” value turned out to be 2% @ 20 μM.
As for `O=C(CCCc1ccc(CCCc2ccccc2)cc1)NO` [Compound 155], the “pooled HDACs percent inhibition” value worked out at 39% @ 20 μM.
On to `Nc1ccccc1NC(=O)/C=C/c1ccc(CC(=O)c2ccccc2)o1` [Compound 139], for which the “pooled HDACs percent inhibition” value is listed as 44% @ 20 μM.
Regarding `Nc1ccccc1NC(=O)CCc1ccc(CC(=O)c2ccccc2)o1` [Compound 144], the “pooled HDACs percent inhibition” value came to 6% @ 20 μM.

Still in this test, the particulars now being: [3H]-acetylated histone substrate.
Broadly, the IC50 is the point on the concentration scale where inhibition reaches its midpoint. Compound `O=C(Cc1ccc(CCCc2ccccc2)cc1)NO` [Compound 175] yielded an IC50 of over 20 µM.
Regarding `O=C(CCc1ccc(CCCCc2ccccc2)cc1)NO` [Compound 154], the concentration for half-maximal inhibition (IC50) is 2 µM.

A further test addresses T1, recombinant human HDAC-1 enzyme (rHDAC-1) (Homo sapiens, UniProt Q13547).
T1 construct: made in house; host or cells: Baculovirus insect cell expression system
Description: Histone deacetylase inhibition, recombinant human HDAC-1. Particulars: cloned recombinant human HDAC-1 from Baculovirus insect cell expression system. The format is biochemical. The procedure:
as §1
As to `COc1ccc(S(=O)(=O)Nc2ccc(/C=C/C(=O)Nc3ccccc3N)cc2)cc1` [Compound 122], the 50% inhibitory concentration (IC50) stood at 2.3 µM.
With `Cc1ccc(NS(=O)(=O)c2ccc(/C=C/C(=O)NO)cc2)cc1` [Compound 161], the half-maximal inhibitory concentration (IC50) amounted to 0.05 µM.
In the case of `COc1ccc(NC(=O)Nc2ccc(/C=C/C(=O)NO)cc2)cc1OC` [Compound 147], the half-maximal inhibitory concentration (IC50) turned out to be 0.48 µM.
Regarding `O=C(NO)c1ccc(/C=C/c2ccccc2)cc1` [Compound 151], the IC50 worked out at 2.3 µM.
Turning to `COc1ccc(NS(=O)(=O)c2ccc(/C=C/C(=O)Nc3nnc(S)s3)cc2)cc1OC` [Compound 164], the IC50 is 5 µM.
With `O=C(/C=C/c1ccc(NC(=O)Nc2cccc3ccccc23)cc1)NO` [Compound 146], the IC50 came out at 0.91 µM.
Turning to `O=C(CCc1ccc(CCc2ccccc2)cc1)NO` [Compound 157], the half-maximal inhibitory concentration (IC50) worked out at 2.4 µM.
Consider `O=C(NO)c1ccc(CCCCCc2ccccc2)cc1` [Compound 153], for which the IC50 was 4.8 µM.
With `O=C(NO)c1ccc(CCCC(O)c2ccc3ccccc3c2)cc1` (stereo not drawn) [Compound 149], the half-maximal inhibitory concentration (IC50) came out at 0.1 µM.
`COc1ccc(NS(=O)(=O)c2ccc(/C=C/C(=O)Nc3ccccc3N)cc2)cc1OC` [Compound 118]: the half-maximal inhibitory concentration (IC50) came to 2.3 µM.
`Cc1ccc(NS(=O)(=O)c2ccc(/C=C/C(=O)Nc3ccccc3N)cc2)cc1` [Compound 159]: the IC50 stood at 1.5 µM.
With `O=C(/C=C/c1ccc(CC(O)c2ccccc2)o1)NO` (stereo not drawn) [Compound 136], the concentration for half-maximal inhibition (IC50) was 0.5 µM.
On the same count and under the same terms, under `O=C(/C=C/c1ccc(NS(=O)(=O)c2ccc(-c3ccccc3)cc2)cc1)Nc1nnc(S)s1` [Compound 165] stands 2 µM.
On to `COc1ccc(S(=O)(=O)Nc2ccc(CCC(=O)Nc3ccccc3N)cc2)cc1OC` [Compound 121], for which the IC50 came out at 23 µM.
As to `O=C(CCc1ccc(CCCCc2ccccc2)cc1)NO` [Compound 154], the IC50 came to 0.9 µM.
With `Nc1ccccc1NC(=O)/C=C/c1ccc(S(=O)(=O)Nc2ccc(-c3ccccc3)cc2)cc1` [Compound 160], the concentration for half-maximal inhibition (IC50) came to 1.2 µM.
On the same count and under the same terms, under `O=C(C#Cc1ccc(NS(=O)(=O)c2ccc(-c3ccccc3)cc2)cc1)NO` [Compound 128] stands 0.3 µM; under `O=C(CCCc1ccc(CCCCc2ccccc2)cc1)NO` [Compound 156], 0.75 µM.
As to `Nc1ccccc1NC(=O)CCc1ccc(CC(=O)c2ccccc2)o1` [Compound 144], the IC50 came to 6.9 µM.
